Measured values reported in ChEMBL document CHEMBL5113378, “Role of basic aminoalkyl chains in the lead optimization of Indoloquinoline alkaloids” (Eur J Med Chem, 2022).
Blank lines part the entries; values can stand above or below the molecule they belong to.

Assays:
Plasmodium falciparum [1] = assay: Antimalarial activity against Plasmodium falciparum NF54 assessed as parasite growth inhibition; assay type: functional, organism-based
[2] = Cytotoxicity against rat L6 cells assessed as cell growth inhibition; assay type: toxicity, cell-based
[3] = Selectivity index, ratio of IC50 for rat L6 cells to IC50 for Plasmodium falciparum NF54; assay type: toxicity; conditions: read-out: Ratio IC50
Hemozoin = assay: Inhibition of beta-hematin formation
[4] = target: T1, Telomerase reverse transcriptase (Homo sapiens, UniProt O14746); assay: Inhibition of telomerase derived from human K562 cell extract incubated for 30 mins by TRAP assay; assay type: cell-free
T1 sequence (O14746 whole entry): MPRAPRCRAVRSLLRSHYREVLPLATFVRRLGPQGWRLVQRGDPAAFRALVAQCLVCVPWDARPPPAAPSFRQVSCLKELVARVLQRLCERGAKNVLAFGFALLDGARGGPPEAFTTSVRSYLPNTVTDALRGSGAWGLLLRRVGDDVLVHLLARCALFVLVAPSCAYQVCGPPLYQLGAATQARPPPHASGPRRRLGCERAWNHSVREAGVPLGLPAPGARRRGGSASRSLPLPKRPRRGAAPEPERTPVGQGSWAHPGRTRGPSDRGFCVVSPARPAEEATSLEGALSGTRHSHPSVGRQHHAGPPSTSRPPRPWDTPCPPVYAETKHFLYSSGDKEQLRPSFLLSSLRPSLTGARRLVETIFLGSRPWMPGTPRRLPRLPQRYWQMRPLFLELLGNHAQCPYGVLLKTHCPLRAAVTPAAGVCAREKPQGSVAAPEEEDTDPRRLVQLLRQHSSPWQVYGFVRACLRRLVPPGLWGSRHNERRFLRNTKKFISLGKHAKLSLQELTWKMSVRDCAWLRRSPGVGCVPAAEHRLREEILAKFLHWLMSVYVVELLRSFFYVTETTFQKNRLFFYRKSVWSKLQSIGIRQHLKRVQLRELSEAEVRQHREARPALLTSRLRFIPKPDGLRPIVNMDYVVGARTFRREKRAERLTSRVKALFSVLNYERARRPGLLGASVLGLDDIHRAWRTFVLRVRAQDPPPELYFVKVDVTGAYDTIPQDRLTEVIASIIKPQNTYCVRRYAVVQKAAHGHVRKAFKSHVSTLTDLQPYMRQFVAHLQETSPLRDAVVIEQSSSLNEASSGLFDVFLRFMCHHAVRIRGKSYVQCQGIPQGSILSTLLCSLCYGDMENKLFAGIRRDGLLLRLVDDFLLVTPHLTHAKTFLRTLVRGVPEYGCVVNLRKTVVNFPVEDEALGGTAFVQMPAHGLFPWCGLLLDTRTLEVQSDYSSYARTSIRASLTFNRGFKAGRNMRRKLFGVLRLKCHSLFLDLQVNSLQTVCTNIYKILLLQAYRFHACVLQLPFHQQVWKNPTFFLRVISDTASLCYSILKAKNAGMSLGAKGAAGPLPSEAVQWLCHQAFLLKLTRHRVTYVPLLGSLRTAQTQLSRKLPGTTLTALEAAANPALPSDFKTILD

SK-HEP1 = assay: Antiproliferative activity against human SK-HEP1 cells assessed as cell growth inhibition; assay type: functional, cell-based
[5] = target: DNA topoisomerase 2-beta (Homo sapiens) (UniProt Q02880); assay: Inhibition of human topoisomerase-2-beta
DNA topoisomerase 2-beta (Homo sapiens), sequence (Q02880 whole entry): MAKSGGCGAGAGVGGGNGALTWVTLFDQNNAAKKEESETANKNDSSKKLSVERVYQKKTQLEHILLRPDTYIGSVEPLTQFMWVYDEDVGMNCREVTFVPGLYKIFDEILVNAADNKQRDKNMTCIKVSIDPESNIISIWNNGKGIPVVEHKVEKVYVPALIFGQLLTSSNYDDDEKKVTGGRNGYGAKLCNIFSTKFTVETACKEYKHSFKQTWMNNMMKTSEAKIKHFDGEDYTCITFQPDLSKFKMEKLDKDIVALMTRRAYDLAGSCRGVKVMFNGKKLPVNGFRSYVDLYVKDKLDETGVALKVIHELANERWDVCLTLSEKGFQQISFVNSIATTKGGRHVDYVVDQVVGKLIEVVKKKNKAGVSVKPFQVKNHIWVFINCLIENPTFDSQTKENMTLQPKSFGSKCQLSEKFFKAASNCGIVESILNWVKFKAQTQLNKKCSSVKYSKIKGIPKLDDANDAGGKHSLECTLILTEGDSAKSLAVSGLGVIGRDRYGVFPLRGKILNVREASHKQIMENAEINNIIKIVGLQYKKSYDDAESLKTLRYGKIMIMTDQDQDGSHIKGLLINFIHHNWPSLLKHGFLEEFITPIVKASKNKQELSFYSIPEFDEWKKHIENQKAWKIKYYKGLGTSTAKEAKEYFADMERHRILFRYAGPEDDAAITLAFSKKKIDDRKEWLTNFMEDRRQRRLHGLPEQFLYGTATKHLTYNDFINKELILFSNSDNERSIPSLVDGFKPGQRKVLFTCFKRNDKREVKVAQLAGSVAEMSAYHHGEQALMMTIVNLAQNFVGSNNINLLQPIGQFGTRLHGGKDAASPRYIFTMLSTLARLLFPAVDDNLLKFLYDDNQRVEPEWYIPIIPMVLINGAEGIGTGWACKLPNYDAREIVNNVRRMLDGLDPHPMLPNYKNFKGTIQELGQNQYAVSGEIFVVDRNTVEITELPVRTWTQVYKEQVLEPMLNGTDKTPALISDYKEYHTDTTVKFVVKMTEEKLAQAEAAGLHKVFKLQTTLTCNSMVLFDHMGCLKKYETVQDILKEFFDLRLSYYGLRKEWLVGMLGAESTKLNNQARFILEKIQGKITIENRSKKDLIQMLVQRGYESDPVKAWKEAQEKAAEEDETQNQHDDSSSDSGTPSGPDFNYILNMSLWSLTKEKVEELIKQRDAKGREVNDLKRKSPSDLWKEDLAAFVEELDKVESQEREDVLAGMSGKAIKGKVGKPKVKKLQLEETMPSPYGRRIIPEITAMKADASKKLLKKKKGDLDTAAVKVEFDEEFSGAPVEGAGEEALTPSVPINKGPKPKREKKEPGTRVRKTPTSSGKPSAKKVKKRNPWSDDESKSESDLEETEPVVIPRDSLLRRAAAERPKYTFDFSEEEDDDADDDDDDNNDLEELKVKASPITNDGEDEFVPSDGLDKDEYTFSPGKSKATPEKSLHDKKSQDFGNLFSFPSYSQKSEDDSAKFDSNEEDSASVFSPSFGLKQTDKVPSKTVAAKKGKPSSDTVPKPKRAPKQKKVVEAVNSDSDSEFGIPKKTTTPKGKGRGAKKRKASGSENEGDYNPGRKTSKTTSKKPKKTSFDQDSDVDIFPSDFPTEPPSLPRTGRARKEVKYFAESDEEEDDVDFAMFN

MCF7 = assay: Antiproliferative activity against human MCF7 cells assessed as cell growth inhibition; assay type: functional, cell-based
A549 = assay: Antiproliferative activity against human A549 cells assessed as cell growth inhibition; assay type: functional, cell-based
K562 = assay: Antiproliferative activity against human K562 cells assessed as cell growth inhibition; assay type: functional
RPMI-8226 = assay: Antiproliferative activity against human RPMI-8226 cells assessed as cell growth inhibition; assay type: functional
MOLT-4 = assay: Antiproliferative activity against human MOLT-4 cells assessed as cell growth inhibition; assay type: functional
Trypanosoma brucei = assay: Antitrypanosomal activity against Trypanosoma brucei assessed as parasite growth inhibition; assay type: functional, organism-based
[6] = Selectivity index, ratio of IC50 for rat L6 cells to IC50 for Plasmodium falciparum K1; assay type: toxicity; conditions: read-out: Ratio IC50
CH1 [7] = assay: Cytotoxicity against drug resistant human CH1 cells assessed as cell growth inhibition; assay type: functional, cell-based
CH1 [8] = assay: Cytotoxicity against human CH1 cells assessed as cell growth inhibition; assay type: functional, cell-based
A2780 [9] = assay: Cytotoxicity against human A2780 cells assessed as cell growth inhibition; assay type: functional, cell-based
Plasmodium falciparum [10] = assay: Antimalarial activity against multi-drug resistant Plasmodium falciparum K1 assessed as parasite growth inhibition by microdilution method; assay type: functional, organism-based
SK-OV-3 = assay: Cytotoxicity against human SK-OV-3 cells assessed as cell growth inhibition; assay type: functional, cell-based
A2780 [11] = assay: Cytotoxicity against drug resistant human A2780 cells assessed as cell growth inhibition; assay type: functional, cell-based
[12] = target: T1, Telomerase reverse transcriptase; assay: Inhibition of telomerase derived from human A2780 cell extract by TRAP assay; assay type: cell-free
Plasmodium berghei = assay: Antimalarial activity against Plasmodium berghei NK65 infected in Webster Swiss mouse assessed as parasite growth inhibition at 50 mg/kg/day, po for 5 days by geimsa dye based microscopy relative to control; assay type: functional; design: scale not given: the % may be the effect or the level left; conditions: time 5 day
Plasmodium falciparum [13] = assay: Antimalarial activity against chloroquine/mefloquine resistant Plasmodium falciparum clinical isolates assessed as parasite growth inhibition incubated for 24 hrs by microtechnique method; assay type: functional, organism-based
HCT-116 [14] = assay: Antiproliferative activity against human HCT-116 cells assessed as cell growth inhibition; assay type: functional, cell-based
HeLa = assay: Antiproliferative activity against human HeLa cells assessed as cell growth inhibition; assay type: functional, cell-based
DU-145 = assay: Antiproliferative activity against human DU-145 cells assessed as cell growth inhibition; assay type: functional
Plasmodium falciparum [15] = assay: Antimalarial activity against Plasmodium falciparum K1 assessed as parasite growth inhibition; assay type: functional, organism-based
HCT-116 [16] = assay: Antiproliferative activity against human HCT-116 cells assessed as cell growth inhibition incubated for 96 hrs by MTS assay; assay type: functional, cell-based; conditions: HCT-116, 96 h
DNA = assay: Binding affinity to DNA (unknown origin) assessed as DNA intercalation by measuring amount of methyl green by spectrophotometry; assay type: nucleic-acid assay, Homo sapiens
[17] = Selectivity index, ratio of IC50 for human MRC5 to IC50 for Plasmodium falciparum Ghana; assay type: toxicity; conditions: MRC5 cells, read-out: Ratio IC50
SR = assay: Antiproliferative activity against human SR cells assessed as cell growth inhibition; assay type: functional
HL-60 = assay: Antiproliferative activity against human HL-60 cells assessed as cell growth inhibition; assay type: functional

Compound: CCCCNc1c2ccccc2[n+](C)c2c1[nH]c1ccccc12
MIC [5]: 500 nM
IC50 (MCF7): 5.9 µM
IC50 (A549): 470 nM

Compound: Cn1c2nc3ccccc3c-2c(NCCCN2C(=O)c3ccccc3SC2c2ccc(Cl)cc2)c2ccccc21 (configuration not stated)
IC50 (Trypanosoma brucei): 868 nM
IC50 (Plasmodium falciparum [1]): 2.6 nM
selectivity ratio [3]: 361

Compound: COC(=O)c1ccc2nc3n(C)c4ccccc4c(NCCCN)c-3c2c1
selectivity ratio [6]: 7.2
IC50 (Hemozoin): 48.9 µM

Compound: c1ccc2nc3c(cc2c1)[nH]c1ccccc13 [QUINDOLINE]
IC50 (CH1 [7]): 30 µM
IC50 (CH1 [8]): 15.5 µM
IC50 (A2780 [9]): 21.5 µM
IC50 (Plasmodium falciparum [10]): > 229 µM
IC50 [4]: > 138000 nM
IC50 (SK-OV-3): 66 µM
IC50 (A2780 [11]): 24.5 µM

Compound: c1cc2nc3c(cc2cc1CCCN1CCCCC1)[nH]c1ccc(CCCN2CCCCC2)cc13
IC50 [12]: 11.8 µM

Compound: Cn1c2nc3ccccc3c-2c(NCCCN)c2ccccc21
selectivity ratio [3]: 3.5

Compound: C[n+]1c2ccccc2c(NC2CCNCC2)c2[nH]c3ccccc3c21
Activity (Plasmodium berghei): 55%

Compound: COc1cc2c(cc1CN(C)CCCN(C)C)[nH]c1c3ccc(Cl)cc3ncc21
IC50 (Plasmodium falciparum [13]): 0.192 nM

Compound: CCN(CC)Cc1cc2[nH]c3c4ccc(Cl)cc4ncc3c2cc1OC
IC50 (Plasmodium falciparum [15]): 9 nM

Compound: CCN(CC)CCOC(=O)c1ccc2c(c1)c1c(c(=O)c3ccccc3n1CCN(CC)CC)n2CCN(CC)CC
IC50 (HCT-116 [16]): 4.5 µM

More lines, main results first:

IC50 (Hemozoin): 26.3 µM
Compound: Cn1c2nc3ccccc3c-2c(NCC(C)(C)CNC(=O)Nc2ccccc2)c2ccccc21
IC50 (Plasmodium falciparum [1]): 68 nM
IC50 [2]: 5.65 µM
selectivity ratio [3]: 82.2

IC50 [4]: 550 nM
Compound: c1ccc2c(NCCN3CCOCC3)c3[nH]c4ccccc4c3nc2c1

IC50 (SK-HEP1): 90 nM
Compound: c1ccc2c(c1)nc(NCCCNCCCNc1nc3ccccc3c3[nH]c4ccccc4c13)c1c3ccccc3[nH]c21

GI50 (K562): 1840 nM
GI50 (RPMI-8226): 1080 nM
GI50 (MOLT-4): 320 nM
Compound: Cn1c2nc3ccccc3c-2c(Nc2ccccc2)c2ccccc21

IC50 (Trypanosoma brucei): 589 nM
Compound: Cn1c2nc3ccccc3c-2c(NCCCNC(=S)Nc2ccccc2)c2ccccc21
selectivity ratio [6]: 11
selectivity ratio [3]: 135

IC50 (Hemozoin): 104 µM
Compound: COC(=O)c1ccc2c(c1)c(NCCCN)c1c3ccccc3nc-1n2C

IC50 (Hemozoin): 10.1 µM
Compound: Cn1c2nc3ccccc3c-2c(NCC(C)(C)CNC(=O)Nc2ccccc2)c2cc(Cl)ccc21
IC50 (Plasmodium falciparum [1]): 19 nM
IC50 [2]: 1.18 µM

IC50 (HCT-116 [14]): 800 nM
Compound: O=C(NCCNc1c2ccccc2nc2c1[nH]c1ccccc12)c1ccccc1

GI50 (MCF7): 9.7 µM
GI50 (A549): 7.2 µM
GI50 (HeLa): 10.3 µM
GI50 (DU-145): 20.7 µM
Compound: Cn1c2ccccc2c2c(C(=O)NC3CCCCC3)c3cc(Cl)ccc3nc21

IC50 (HCT-116 [14]): 300 nM
Compound: CNCCCNc1c2ccccc2nc2c1[nH]c1ccccc12

IC50 (Hemozoin): 19.9 µM
Compound: Cn1c2nc3ccccc3c-2c(NCC(C)(C)CNC(=S)Nc2ccccc2)c2ccccc21
IC50 (Plasmodium falciparum [1]): 57 nM
IC50 [2]: 7.25 µM
selectivity ratio [3]: 126

IC50 (DNA): 93 µM
IC50 (Hemozoin): 5.97 µM
Compound: Cn1c2nc3ccccc3c-2cc2ccccc21 [NEOCRYPTOLEPINE]
selectivity ratio [6]: 1.9
selectivity ratio [3]: 2
selectivity ratio [17]: 0.4

GI50 (K562): 420 nM
GI50 (HL-60): 110 nM
GI50 (RPMI-8226): 140 nM
GI50 (MOLT-4): 90 nM
Compound: COc1ccc(Nc2c3c4ccccc4nc-3n(C)c3ccccc23)cc1
GI50 (SR): 190 nM
